In the test the target is Cathepsin D (Homo sapiens, UniProt P07339). The experiment in a line: In Vitro Enzymatic FRET Assay: Recombinant Cat D was expressed in CHO cells. The assay buffer for CathepsinD is 0.05 M citrate pH 3.5, 10% DMSO final, 5 mM CHAPS. The Cat D enzyme (9 nM) is pre-incubated for one hour with inhibitors, typically in about 1 uL of DMSO according to a serial dilution, is added thereto. The assays are effectively started by the addition of different FRET substrates (20 nM for Cat D) and the combination is incubated for one hour. The FRET assay is terminated with by addition of Tris buffer, which raises the pH to neutrality, and the fluorescence is determined. The FRET substrate is a peptide with commercially available fluorophore and quencher, on opposite sides of the BACE cleavage site. […] Proteolytic cleavage of the FRET substrate releases quenching of fluorescence (Cat D excitation 500 nm and emission 580 nm). In kind it is cell-based.
Chain of Cathepsin D (P07339 65-162 limits assumed): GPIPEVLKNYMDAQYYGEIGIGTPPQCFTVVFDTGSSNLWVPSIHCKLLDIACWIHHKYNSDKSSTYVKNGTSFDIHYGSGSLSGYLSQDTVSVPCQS
Chain of Cathepsin D (P07339 169-412 limits assumed): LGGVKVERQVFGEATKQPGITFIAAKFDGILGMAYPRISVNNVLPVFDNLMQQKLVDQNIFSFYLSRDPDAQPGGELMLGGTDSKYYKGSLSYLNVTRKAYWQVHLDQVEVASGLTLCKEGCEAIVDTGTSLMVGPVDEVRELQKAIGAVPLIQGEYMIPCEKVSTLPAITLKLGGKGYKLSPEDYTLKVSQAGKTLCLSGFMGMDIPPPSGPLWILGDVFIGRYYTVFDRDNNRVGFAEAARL

Turning to `NC1=N[C@](CF)(c2cc(NC(=O)c3ccc(Cl)cn3)cc(F)c2F)[C@H]2CC2O1` (mixture of isomers), the IC50 stood at 229 µM. In the case of `Cc1cc(OC(F)F)cnc1C(=O)Nc1ccc(Cl)c(C2(C(F)F)N=C(N)O[C@@H]3C[C@@H]32)c1` (some centres not stated), the IC50 was 958 µM.

As a reminder, the IC50 is the point on the concentration scale where inhibition reaches its midpoint.
